From patent EP0107306A1, “Imidazoline derivatives” (BEECHAM GROUP PLC, priority 1982, dated 1984)
Where a name gives a salt, the structure may show the parent alone. Marks after values point to notes of the source that are not given here.

System: E coli B44 (09:K90:K99)
Experiment: Protection of neonatal mice from lethal enteropathogenic E coli infection
Assay type: in vivo
Details: 4 day old mice orally infected; for % Protection by drug: mortality in drug group compared with placebo group
Experimental: 4 day old mice were orally dosed with 50pl of phosphate buffered saline containing 1 x 10^5 organisms/ml of E coli B44 (09:K90:K99) an enteropathogenic strain originally isolated from a scouring calf. The mice were then dosed b.i.d. with either placebo or drug for four days commencing 16 hours after infection. The animals were left with their mothers throughout the experiment and a daily record of deaths was made. The experiment was terminated when no mortality was seen over a 24 hour period. (Usually 7-10 days after infection). The mortality in the drug group was then compared with the mortality in the placebo group using the following formula:- [formula]
where Mp = mortality in group receiving placebo Md = mortality in group receiving drug
Statistical analysis was performed using 2 x 2 contingency tables (single tailed 'p').

[1] = drug 10mg/kg b.i.d. for four days commencing 16 hours after infection
[2] = drug 10mg/kg b.i.d. for four days

Structure (SMILES)	% Mortality [1]	No of mice dead after 10 days [1]	% Protection by drug [2]	% Mortality (drug 50mg/kg b.i.d. for four days commencing 16 hours after infection)	No of mice dead after 10 days (drug 50mg/kg b.i.d. for four days commencing 16 hours after infection, 68 mice infected)	% Protection by drug (drug 50mg/kg b.i.d. for four days)
C[N+](C)(C)Cc1cc(Cl)c(N=C2NCCN2)c(Cl)c1 [Example 6, 2-(2,6-Dichloro-4-trimethylammoniomethylphenylimino)-imidazolidine bromide Hydrobromide.]	71%	52	15%			
CC[N+](CC)(CC)Cc1cc(Cl)c(N=C2NCCN2)c(Cl)c1 [Example I, 2,(2,6-Dichloro-4-triethylammoniomethylphenylimino)-imidazolidine bromide]	32%	22	40* %	29%	20	46* %
